Source: US20250325586A1, “TREATING CANCER” (priority 2022, published 2025)
“Also recorded” adds a separate entry of the source.

Legend:
[1] = tested on: luciferase/TSHR+/+ K562 or luciferase/TSHR+/+ FTC133 cells; settings: presence or absence of MEK inhibitor (10 nM trametinib, FTC133, 48 hours in FIG. 10A)
Procedure: Cytotoxicity assays: Cytotoxicity assays were performed as described elsewhere (see, e.g., Sterner, R. M. et al., Blood 133, 697-709 (2019)). In summation, luciferase/TSHR+/+K562 or luciferase/TSHR+/+FTC133 cells was used as a target cell. TSHR-CAR T cells or batch-matched control donor untransduced (non-transduced) T cells (UTD) were co-cultured with target cells at serial effector: target (E:T) ratios in T cell media. Cytotoxic efficiency was calculated by bioluminescence imaging on the Xenogen IVIS-200 Spectrum (PerkinElmer, Hopkinton, MA, USA) or Promega GlowMax Explorer (Promega Corporation, Fitchburg, WI, USA) at 24 hours, 48 hours, and 72 hours, as indicated in the specific experiment.
Cytotoxicity assays were performed as described elsewhere (Sterner, R. M. et al., Blood 133, 697-709 (2019)). Luciferase*TSHR*K562 or FTC133 cells were used as target cells. UTD or TSHR-CART cells were co-cultured with target cells at various effector: target (E:T) ratios in T cell medium. Cytotoxic efficiency was calculated by bioluminescence imaging on the Promega GlowMax Explorer (Promega Corporation, Fitchburg, WI, USA) at indicated time points.

[2] = tested on: TSHR expression in ATC PDX tumors (THJ-560 / MC-Th-560); assay: IHC of TSHR and pERK in ATC PDX tumors treated with MEK/BRAF inhibitors; assay type: in vivo, NSG mice
Procedure: Immunostaining was performed on paraffin-embedded tissue. Thyroid tissue microarray (TMA) was made from archival samples. Paraffin blocks were cut into 5 μm thick sections. Slides were deparaffinized, and were rehydrated with decreasing concentrations of ethanol and finally in water. Antigen retrieval was performed using Antigen Retrieval Solution (pH 6 or pH 9) (Dako, Glostrup, Denmark), for at least 15 minutes in an autoclave, and cooling for 30 minutes at room temperature. Washing slides with 3% hydrogen peroxide (Fisher Scientific, Waltham, MA, USA) for 10 minutes blocked the activity of endogenous peroxidases. Primary anti-human antibodies were used for 60 minutes at room temperature and at the following dilutions: TSHR antibody at 1:500 (abcam, ab218108, Cambridge, UK) and NIS antibody at 1:200 (ProteinTech, 24324-1-AP, Rosemont, IL, USA), CD14 antibody at 1:100 (abcam, ab183322, Cambridge, UK), CD80 at 1:1000 (abcam, ab134120, Cambridge, UK), CD206 at 1:5000 (abcam, ab64693, Cambridge, UK), Ki67 at 1:1000 (abcam, ab15580, Cambridge, UK), cleaved caspase 3 (Asp175) CC3 at 1:100 (Cell Signaling 9661, Danvers, MA, USA), and CD31 at (Santa Cruz Biotechnology, sc-1506, Dallas, TX, USA).
In this model, 5 mm^3 MC-Th-560 ATC PDX tissue was surgically implanted into the right lateral flank of NSG mice and grown to ˜100 mm^3. Mice then received daily treatment with either vehicle control or trametinib (MEK inhibitor) at the indicated doses.
The following was performed to assess the kinetics of TSHR expression after MEK/BRAF inhibition. Mice were implanted with 5 mm^3 Th-560 ATC PDX tumors. When tumors reached ˜100 mm^3, mice were treated daily with either vehicle control or with 1.5 mg/kg R05126766 plus 1 mg/kg dabrafenib.
Immunostaining was performed on paraffin-embedded tissue. Thyroid tissue microarray (TMA) was made from archival samples. Paraffin blocks were cut into 5 μm thick sections. […] The primary antibody was detected using the Envision Labeled Kit (Dako, Glostrup, Denmark) according to the manufacturer's protocol. […]

ATC THJ-560 PDX tumors = assay: Tumor volume of ATC PDX tumors treated with MEK/BRAF inhibitors; assay type: in vivo, NSG mice
Procedure: FIGS. 9A-9J. Treatment of thyroid tumors with MAPK inhibitors results in upregulation of TSHR. […] NSG mice treated with different daily doses of trametinib for 8 days and tumor volume regression was measured. FIG. 9B) TSHR expression was restored with higher dose of trametinib, whereas pERK expression was reduced. Right. […] Left. Association between H-score of TSHR and pERK in correlation with trametinib dose-escalation. […] Assessment of tumor volume on NSG mice treated with different doses of R05126766. […] Right. ICH tumor sections showing TSRH and pERK expression. Left. H-score of TSRH and pERK in association with increasing doses of R05126766. FIG. 9E) Experimental schema of an ATC PDX model treated with MAPK inhibitors (MEKi and BRAFi). […] Treatment was begun when tumors were ˜75-100 mm^3. […] Upper panel. H-score of TSHR in ATC-derived treated tumors (One-way ANOVA; **p<0.01; n=4 mice; error bars, SEM). Lower panel. TSHR expression assessment via IHC. […] Tumor volume assessment over a period of 7 days of MAPK inhibitors dosage. FIG. 9H) Experimental schema of an ATC PDX model treated with MEK inhibitors. NSG mice were implanted with ATC PDX tumors and treatment with MEK inhibitors (for 14 days) R05126766 and trametinib started (daily dosage) when tumors reached ˜75-100 mm^3. […] Upper panel. […]

[3] = one week of daily treatment at escalating doses, MC-Th-560 ATC PDX, vs placebo

CC(=O)Nc1cccc(-n2c(=O)n(C3CC3)c(=O)c3c(Nc4ccc(I)cc4F)n(C)c(=O)c(C)c32)c1 [trametinib]
effect of MEK inhibitor on TSHR CART cell cytotoxicity [1]: did not impair

CNS(=O)(=O)Nc1nccc(Cc2c(C)c3ccc(Oc4ncccn4)cc3oc2=O)c1F [Clone R05126766]
TSHR protein expression by IHC ([2]; 14 days daily oral, 1.5 mg/kg R05126766 or 1 mg/kg trametinib, vs vehicle/placebo): elevated significantly; also recorded: increased TSHR expression
TSHR expression by IHC, dose escalation [2, 3]: increase in TSHR expression; also recorded: increased expression of TSRH
pERK expression by IHC, dose escalation [2, 3]: reduction of pERK; also recorded: lower expression of pERK
anti-tumor activity (tumor volume by caliper) (ATC THJ-560 PDX tumors; 14 days daily, placebo, R05126766 or trametinib): better anti-tumor activity in comparison to trametinib
tumor volume, dose escalation (ATC THJ-560 PDX tumors; different daily doses (trametinib: 8 days)): dose-depended tumor reduction; also recorded: proportional to thyroid tumor volume reduction
